The results in this text go back to patent US8637237B2, “Methods, compositions, and systems for the identification of species-specific or developmental stage-specific insecticides” (The University of North Carolina at Greensboro, priority 2003, dated 2014).

The test deals with T1, FXR (Rattus norvegicus, UniProt Q62735).
T1 sequence (Q62735 1-469): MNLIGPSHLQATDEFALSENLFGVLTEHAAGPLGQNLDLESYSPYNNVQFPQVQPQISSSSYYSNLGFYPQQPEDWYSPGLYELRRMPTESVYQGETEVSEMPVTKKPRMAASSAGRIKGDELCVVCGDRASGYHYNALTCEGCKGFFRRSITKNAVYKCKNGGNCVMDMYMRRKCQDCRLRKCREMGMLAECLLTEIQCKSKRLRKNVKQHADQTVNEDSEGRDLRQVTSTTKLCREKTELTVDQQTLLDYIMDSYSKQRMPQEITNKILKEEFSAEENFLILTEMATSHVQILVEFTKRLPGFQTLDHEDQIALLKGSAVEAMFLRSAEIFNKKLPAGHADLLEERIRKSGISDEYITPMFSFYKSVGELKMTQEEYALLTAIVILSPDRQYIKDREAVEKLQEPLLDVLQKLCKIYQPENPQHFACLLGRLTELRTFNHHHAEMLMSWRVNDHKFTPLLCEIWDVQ
T1 sequence (P28700 1-467 partner): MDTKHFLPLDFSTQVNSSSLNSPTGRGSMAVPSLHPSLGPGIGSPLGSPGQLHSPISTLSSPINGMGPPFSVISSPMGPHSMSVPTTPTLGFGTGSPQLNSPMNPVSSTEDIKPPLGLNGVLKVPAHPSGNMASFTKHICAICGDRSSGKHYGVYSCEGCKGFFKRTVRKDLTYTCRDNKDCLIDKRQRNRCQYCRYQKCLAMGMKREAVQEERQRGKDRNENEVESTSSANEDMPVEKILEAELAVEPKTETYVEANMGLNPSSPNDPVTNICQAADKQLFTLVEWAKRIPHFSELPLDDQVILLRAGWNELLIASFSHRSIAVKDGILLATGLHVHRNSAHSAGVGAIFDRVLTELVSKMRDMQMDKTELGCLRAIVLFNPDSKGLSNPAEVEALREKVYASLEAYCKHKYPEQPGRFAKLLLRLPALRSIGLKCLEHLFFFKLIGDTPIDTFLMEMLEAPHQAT
The test can be described thus: cell-based. The conditions noted are these: for FXR-dependent CAT activity, induction: 50 μM. The method in brief:
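CHO cells co-transfected with FXR, mouse RXRα and a (EcRE)5-ΔMTV-CAT reporter, with β-galactosidase for normalization. An RXR-dependent CRBPII-CAT reporter was run in parallel. Cells were exposed to candidate juvenoids for 24 h; CAT activity normalized to β-gal and expressed as fold induction over vehicle controls.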

The mark [1] stands for this setting: final dose of 50 ∝M, 1 = induction less than 2-fold below cytotoxic doses.

“And” between values parts separate entries of the source, which are not always exact repeats. Identical values can stand only once.

As to `CC(C)(O)CC[C@@H](O)[C@](C)(O)[C@H]1CC[C@@]2(O)C3=CC(=O)[C@@H]4C[C@@H](O)[C@@H](O)C[C@]4(C)[C@H]3CC[C@]12C` [20E, 20-hydroxyecdysone], the “FXR-dependent activity, induction” value (dose not stated) was “unresponsive”.

For the molecule `COC(=O)/C=C(\C)CC/C=C(\C)CC[C@H]1OC1(C)C` [JHIII, juvenile hormone III], the “dose that elicits FXR-dependent activity in the CHO assay” value is 2 µM. For the same molecule, under “listed as JH III”, the “FXR-dependent CAT activity, induction” value is reported as 15 fold. Moreover, the “FXR-dependent CAT activity, induction” value (listed as juvenile hormone III) came out at 20 fold. Moreover, the “FXR ACTIVITY (fold-induction)” value under setting [1] came to 20 fold-induction.

Turning to `CC(C)=CCCC(C)=CCCC(C)=CC(=O)O` [farnesoic acid], the “FXR-dependent CAT activity, induction” value was 2 fold and 3 fold. For the same molecule, the “FXR ACTIVITY (fold-induction)” value under setting [1] came to 3 fold-induction.

In the case of `COC(=O)/C=C(\C)CC/C=C(\C)CCC=C(C)C` [methyl farnesoate], the “FXR-dependent CAT activity, induction” value stood at 6 fold.

For `CC(C)CC[C@@H](O)[C@](C)(O)[C@H]1CC[C@@]2(O)C3=CC(=O)[C@]4(O)C[C@@H](O)[C@@H](O)C[C@]4(C)[C@H]3[C@H](O)C[C@]12C` [murA, muristerone A], the “FXR-dependent activity, induction” value (dose not stated) is on record as “unresponsive”.

Turning to juvocimene, under “25 μM”, the “FXR-dependent activity, induction” value is given as 5 fold. The “FXR ACTIVITY (fold-induction)” value (dose 25 μM) is 9 fold-induction. Further, the “RXR mediated transcription, increase” value (plant-derived JH agonists examined as FXR effectors) was 10 fold.
